Measured values as given in PubChem BioAssay (NCI).
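Cultured in 96-well plates, cells were exposed to test compound for 48 hours across five concentrations. Abbreviation: GI50, concentration required for 50% inhibition of growth. The concentration for full growth arrest is given as TGI.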

Assays:
Test in all cases: NCI-60 cell line screen, 48 h
[1] = test system: CAKI-1 renal
[2] = test system: NCI-H460 lung
[3] = test system: LOX IMVI melanoma
[4] = test system: HCC-2998 colon
[5] = test system: T-47D breast
[6] = test system: U251 CNS
[7] = test system: 786-0 renal
[8] = test system: HCT-15 colon
[9] = test system: SF-268 CNS
[10] = test system: DU-145 prostate
[11] = test system: IGROV1 ovarian
[12] = test system: M14 melanoma
[13] = test system: NCI-H522 lung
[14] = test system: HCT-116 colon
[15] = test system: MDA-MB-231 breast
[16] = test system: SNB-19 CNS
[17] = test system: OVCAR-4 ovarian
[18] = test system: SW-620 colon
[19] = test system: SK-OV-3 ovarian
[20] = test system: SF-295 CNS
[21] = test system: SR leukemia
[22] = test system: MDA-MB-435
[23] = test system: TK-10 renal
[24] = test system: HOP-92 NSCLC
[25] = test system: BT-549 breast
[26] = test system: UACC-257 melanoma
[27] = test system: K-562 leukemia
[28] = test system: KM12 colon
[29] = test system: A498 renal
[30] = test system: OVCAR-5 ovarian
[31] = test system: SK-MEL-28 melanoma
[32] = test system: HT29 colon
[33] = test system: EKVX NSCLC
[34] = test system: MCF7 breast
[35] = test system: SN12C renal
[36] = test system: UACC-62 melanoma
[37] = test system: NCI-H226 lung
[38] = test system: NCI/ADR-RES ovarian
[39] = test system: SK-MEL-5 melanoma
[40] = test system: CCRF-CEM leukemia
[41] = test system: HL-60(TB) leukemia
[42] = test system: MOLT-4 leukemia
[43] = test system: SK-MEL-2 melanoma
[44] = test system: HS 578T breast
[45] = test system: PC-3 prostate
[46] = test system: ACHN renal
[47] = test system: OVCAR-8 ovarian
[48] = test system: MALME-3M melanoma
[49] = test system: A549 NSCLC
[50] = test system: SF-539 CNS
[51] = test system: UO-31 renal
[52] = test system: COLO 205 colon
[53] = test system: NCI-H23 lung
[54] = test system: RXF 393 renal
[55] = test system: OVCAR-3 ovarian
[56] = test system: HOP-62 NSCLC
[57] = test system: RPMI-8226 leukemia
[58] = test system: SNB-75 CNS

SMILES: CC1(O)CC23CC(O)C4(O)C(CC(O)C4(C)C)C(C)(O)C2CCC1C3O (stereo not drawn)
- TGI [1]: > 100 µM
- TGI [2]: > 100 µM
- TGI [3]: > 100 µM
- TGI [4]: > 100 µM
- TGI [5]: > 100 µM
- TGI [6]: > 100 µM
- TGI [7]: > 100 µM
- TGI [8]: > 100 µM
- TGI [9]: > 100 µM
- TGI [10]: > 100 µM
- TGI [11]: > 100 µM
- TGI [12]: > 100 µM
- TGI [13]: > 100 µM
- TGI [14]: > 100 µM
- TGI [15]: > 100 µM
- TGI [16]: > 100 µM
- TGI [17]: > 100 µM
- TGI [18]: > 100 µM
- TGI [19]: > 100 µM
- TGI [20]: > 100 µM
- TGI [21]: > 100 µM
- TGI [22]: > 100 µM
- TGI [23]: > 100 µM
- TGI [24]: > 100 µM
- TGI [25]: > 100 µM
- TGI [26]: > 100 µM
- TGI [27]: > 100 µM
- TGI [28]: > 100 µM
- TGI [29]: > 100 µM
- TGI [30]: > 100 µM
- TGI [31]: > 100 µM
- TGI [32]: > 100 µM
- TGI [33]: > 100 µM
- TGI [34]: > 100 µM
- TGI [35]: > 100 µM
- TGI [36]: > 100 µM
- TGI [37]: > 100 µM
- TGI [38]: > 100 µM
- TGI [39]: > 100 µM
- TGI [40]: > 100 µM
- TGI [41]: > 100 µM
- TGI [42]: > 100 µM
- TGI [43]: > 100 µM
- TGI [44]: > 100 µM
- TGI [45]: > 100 µM
- TGI [46]: > 100 µM
- TGI [47]: > 100 µM
- TGI [48]: > 100 µM
- TGI [49]: > 100 µM
- TGI [50]: > 100 µM
- TGI [51]: > 100 µM
- TGI [52]: > 100 µM
- TGI [53]: > 100 µM

SMILES: COC(=O)c1sc(=S)c2sc(C(=O)OC)c(C(=O)OC)c2c1C(=O)OC
- GI50 [1]: 58.1 µM
- TGI [1]: > 100 µM
- GI50 [2]: 44.3 µM
- TGI [2]: > 100 µM
- GI50 [54]: 41.7 µM
- TGI [54]: > 100 µM
- GI50 [3]: 46.3 µM
- TGI [3]: > 100 µM
- GI50 [4]: 20.5 µM
- TGI [4]: 76.1 µM
- GI50 [5]: 77.7 µM
- TGI [5]: > 100 µM
- GI50 [6]: 50.5 µM
- TGI [6]: > 100 µM
- GI50 [7]: 89.4 µM
- TGI [7]: > 100 µM
- GI50 [8]: 38 µM
- TGI [8]: > 100 µM
- GI50 [9]: 58.8 µM
- TGI [9]: > 100 µM
- GI50 [55]: 35.5 µM
- TGI [55]: > 100 µM
- GI50 [10]: 71.1 µM
- TGI [10]: > 100 µM
- GI50 [11]: 37.1 µM
- TGI [11]: > 100 µM
- GI50 [12]: 32.5 µM
- TGI [12]: > 100 µM
- GI50 [13]: 31 µM
- TGI [13]: 91.5 µM
- GI50 [14]: 45 µM
- TGI [14]: > 100 µM
- GI50 [15]: 36.3 µM
- TGI [15]: > 100 µM
- GI50 [56]: 59.7 µM
- TGI [56]: > 100 µM
- GI50 [16]: 86.7 µM
- TGI [16]: > 100 µM
- GI50 [17]: 82.2 µM
- TGI [17]: > 100 µM
- GI50 [18]: 74.8 µM
- TGI [18]: > 100 µM
- GI50 [19]: > 100 µM
- TGI [19]: > 100 µM
- GI50 [20]: 39.3 µM
- TGI [20]: > 100 µM
- GI50 [21]: 23.3 µM
- TGI [21]: 48.2 µM
- GI50 [22]: 51.3 µM
- TGI [22]: > 100 µM
- GI50 [23]: 18.1 µM
- TGI [23]: 89.8 µM
- GI50 [24]: 24.3 µM
- TGI [24]: > 100 µM
- GI50 [25]: 46.8 µM
- TGI [25]: > 100 µM
- GI50 [26]: 26.8 µM
- TGI [26]: 92 µM
- GI50 [27]: 36.2 µM
- TGI [27]: > 100 µM
- GI50 [57]: 22 µM
- TGI [57]: 48.8 µM
- GI50 [28]: 36.4 µM
- TGI [28]: > 100 µM
- GI50 [29]: 22.2 µM
- TGI [29]: 52.1 µM
- GI50 [30]: 92.2 µM
- TGI [30]: > 100 µM
- GI50 [31]: 71.8 µM
- TGI [31]: > 100 µM
- GI50 [32]: 72.6 µM
- TGI [32]: > 100 µM
- GI50 [33]: 89.9 µM
- TGI [33]: > 100 µM
- GI50 [34]: 40 µM
- TGI [34]: > 100 µM
- GI50 [35]: 30.7 µM
- TGI [35]: > 100 µM
- GI50 [36]: 36 µM
- TGI [36]: > 100 µM
- GI50 [37]: 42 µM
- TGI [37]: > 100 µM
- GI50 [38]: 35.4 µM
- TGI [38]: > 100 µM
- GI50 [39]: 39.1 µM
- TGI [39]: > 100 µM
- GI50 [58]: 52 µM
- TGI [58]: > 100 µM
- GI50 [40]: 30.8 µM
- TGI [40]: 80.1 µM
- GI50 [41]: 21.9 µM
- TGI [41]: 62.3 µM
- GI50 [42]: 36.9 µM
- TGI [42]: > 100 µM
- GI50 [43]: 38.7 µM
- TGI [43]: > 100 µM
- GI50 [44]: 46.5 µM
- TGI [44]: > 100 µM
- GI50 [45]: 37.2 µM
- TGI [45]: > 100 µM
- GI50 [46]: 40.3 µM
- TGI [46]: > 100 µM
- GI50 [47]: 57.7 µM
- TGI [47]: > 100 µM
- GI50 [49]: 51.2 µM
- TGI [49]: > 100 µM
- GI50 [50]: 36.7 µM
- TGI [50]: > 100 µM
- GI50 [51]: 68.5 µM
- TGI [51]: > 100 µM
- GI50 [52]: 69.8 µM
- TGI [52]: > 100 µM
- GI50 [53]: 44.8 µM
- TGI [53]: > 100 µM

SMILES: CC1CC(C)(C)CC(OCCN2CCCCC2)(c2ccccc2)C1 (stereo not drawn)
- TGI [1]: 25.5 µM
- TGI [2]: 17.5 µM
- TGI [54]: 23.8 µM
- TGI [3]: 21.3 µM
- TGI [5]: 29.5 µM
- TGI [6]: 25.5 µM
- TGI [7]: 22.6 µM
- TGI [8]: 27.5 µM
- TGI [9]: 23.9 µM
- TGI [55]: 22.5 µM
- TGI [10]: 19.8 µM
- TGI [11]: 27.3 µM
- TGI [12]: 14.4 µM
- TGI [13]: 21.6 µM
- TGI [14]: 18.9 µM
- TGI [15]: 24.9 µM
- TGI [56]: 26.5 µM
- TGI [16]: 26.7 µM
- TGI [17]: 24 µM
- TGI [18]: 32.5 µM
- TGI [19]: 28.3 µM
- TGI [20]: 22.9 µM
- TGI [21]: 20.4 µM
- TGI [22]: 24.7 µM
- TGI [23]: 26.7 µM
- TGI [24]: 21.7 µM
- TGI [25]: 27.8 µM
- TGI [26]: 24.2 µM
- TGI [27]: 28.7 µM
- TGI [57]: 20.3 µM
- TGI [28]: 21.4 µM
- TGI [29]: 26.1 µM
- TGI [30]: 18.2 µM
- TGI [31]: 29.7 µM
- TGI [32]: 9.92 µM
- TGI [33]: 19.5 µM
- TGI [34]: 26.4 µM
- TGI [35]: 25.4 µM
- TGI [36]: 29.6 µM
- TGI [37]: 38.3 µM
- TGI [38]: 33.9 µM
- TGI [39]: 22.9 µM
- TGI [58]: 28.8 µM
- TGI [40]: 24.9 µM
- TGI [41]: 27.9 µM
- TGI [43]: 33.4 µM
- TGI [44]: 32.4 µM
- TGI [45]: 25.6 µM
- TGI [46]: 30.3 µM
- TGI [47]: 30.3 µM
- TGI [48]: 23.4 µM
- TGI [49]: 24.6 µM
- TGI [50]: 29.4 µM
- TGI [51]: 20.6 µM
- TGI [52]: 21.8 µM
- TGI [53]: 32.6 µM
